Data as given in patent US20110166121A1 (LG LIFE SCIENCES LTD., priority 2008, published 2011).

How the values were obtained:
[1] = tested on: Human platelet aggregation caused by ADP; experiment: Inhibition of ADP-induced platelet aggregation (Mimic-human PRP); format: cell-based; settings: 20 μM ADP; for Ki: human platelet concentrate diluted with PPP, absorption at 595 nm
Summary of the method: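 Ki came from non-linear sigmoidal fits of inhibition, measured as the 3-min rise in absorbance at 595 nm after 20 μM ADP, relative to 0/20 μM ADP controls. Platelets (3–4×10^8/mL in PPP-diluted human PRP) were exposed to 0.01–30 μM compound for 20 min at room temperature beforehand.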

Human P2Y12 receptor = target: T1, Human P2Y12 receptor (Homo sapiens, UniProt Q9H244); experiment: Human P2Y12 receptor cell membrane binding assay with [3H] 2-Mes-ADP; settings: 1 nM [3H] 2-Mes-ADP, membranes of HEK cells expressing P2Y12 receptor; read-out: Binding activity (IC50)
T1 construct: expressed in transfected cells; host or cells: HEK cells
T1 sequence (Q9H244 whole entry): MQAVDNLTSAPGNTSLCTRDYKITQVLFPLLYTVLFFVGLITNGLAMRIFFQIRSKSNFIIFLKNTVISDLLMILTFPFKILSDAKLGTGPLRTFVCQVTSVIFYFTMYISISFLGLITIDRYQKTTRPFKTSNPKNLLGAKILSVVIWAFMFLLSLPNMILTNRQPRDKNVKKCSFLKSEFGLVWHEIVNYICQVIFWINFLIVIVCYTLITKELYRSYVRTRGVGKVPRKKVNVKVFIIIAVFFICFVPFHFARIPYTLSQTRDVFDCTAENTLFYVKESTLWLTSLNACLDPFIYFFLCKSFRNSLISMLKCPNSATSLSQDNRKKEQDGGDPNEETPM
Summary of the method: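 Competition binding used 1 nM [3H]2-MeS-ADP on P2Y12-expressing HEK cell membranes for 1 h at room temperature, followed by filtration and scintillation counting.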

Row | Structure (SMILES) | Ki [1] | IC50 (Human P2Y12 receptor) | inhibition at 40 µM ([1]; Homo sapiens, Platelet, 40 μM compound)
1 | CCCc1cc2c(N3CCn4c(nnc4C(F)(F)F)C3)nc(NC(Cc3ccc(O)cc3)C(=O)O)nc2s1 (stereo not shown) [Example 1-81, 3-(4-Hydroxy-phenyl)-2-[6-propyl-4-(3-trifluoromethyl-5,6-dihydro-8H-[1,2,4]triazolo[4,3-a]pyrazin-7-yl)-thieno[2,3-d]pyrimidin-2-ylamino]-propionic acid] | 2.3 µM | 0.32 µM | –
2 | CCCc1cc2c(N3CCn4c(nnc4C(F)(F)F)C3)nc(Oc3ccc(N4CCNCC4)cc3)nc2s1 [Example 3-46, 7-[2-(4-piperazin-1-yl-phenoxy)-6-propyl-thieno[2,3-d]pyrimidin-4-yl]-3-trifluoromethyl-5,6,7,8-tetrahydro-[1,2,4]triazolo[4,3-a]pyrazine] | > 4 µM | 2.33 µM | –
3 | CCCc1cc2c(N3CCn4c(nnc4C(F)(F)F)C3)nc(C(=O)NCC(O)CO)nc2s1 (stereo not shown) [Example 4-10, 6-Propyl-4-(3-trifluoromethyl-5,6-dihydro-8H-[1,2,4]triazolo[4,3-a]pyrazin-7-yl)thieno[2,3-d]pyrimidine-2-carboxylic acid (2,3-dihydroxy-propyl)amide] | 0.2 µM | 1.55 µM | –
4 | CCCc1cc2c(N3CCn4c(nnc4C(F)(F)F)C3)nc(OC3CNC3)nc2s1 [Example 3-26, 7-[2-(Azetidin-3-yloxy)-6-propyl-thieno[2,3-d]pyrimidin-4-yl]-3-trifluoromethyl-5,6,7,8-tetrahydro-[1,2,4]triazolo[4,3-a]pyrazine] | 0.025 µM | 0.149 µM | –
5 | CCCc1cc2c(N3CCn4c(nnc4C(F)(F)F)C3)nc(N3CCc4cc(OC)c(OC)cc4C3CC)nc2s1 (stereo not shown) [Example 1-67, 1-Ethyl-6,7-dimethoxy-2-[6-propyl-4-(3-trifluoromethyl-5,6-dihydro-8H-[1,2,4]triazolo[4,3-a]pyrazin-7-yl)-thieno[2,3-d]pyrimidin-2-yl]-1,2,3,4-tetrahydro-isoquinoline] | > 4 µM | 0.643 µM | –
6 | CCCc1cc2c(N3CCn4c(nnc4C(F)(F)F)C3)nc(N3CCc4ccccc4C3)nc2s1 [Example 1-65, 2-[6-Propyl-4-(3-trifluoromethyl-5,6-dihydro-8H-[1,2,4]triazolo[4,3-a]pyrazin-7-yl)-thieno[2,3-d]pyrimidin-2-yl]-1,2,3,4-tetrahydro-isoquinoline] | 0.26 µM | 0.257 µM | –
7 | CCCc1cc2c(N3CCn4c(nnc4C(F)(F)F)C3)nc(N3CCOCC3)nc2s1 [Example 1-15, 7-(2-Morpholin-4-yl-6-propyl-thieno[2,3-d]pyrimidin-4-yl)-3-trifluoromethyl-5,6,7,8-tetrahydro-[1,2,4]triazolo[4,3-a]pyrazine] | 0.095 µM | 0.062 µM | –
8 | CCCc1cc2c(N3CCn4c(nnc4C(F)(F)C(F)(F)F)C3)nc(N3CCN(C)CC3)nc2s1 [Example 6-6, 7-[2-(4-Methyl-piperazin-1-yl)-6-propyl-thieno[2,3-d]pyrimidin-4-yl]-3-pentafluoroethyl-5,6,7,8-tetrahydro-[1,2,4]triazolo[4,3-a]pyrazine] | – | 0.315 µM | 49%
9 | CCCc1cc2c(N3CCn4c(nnc4C(F)(F)F)C3)nc(C(=O)NCC(=O)O)nc2s1 [Example 4-9, {[6-Propyl-4-(3-trifluoromethyl-5,6-dihydro-8H-[1,2,4]triazolo[4,3-a]pyrazin-7-yl)thieno[2,3-d]pyrimidine-2-carbonyl]amino}acetic acid] | 5.1 µM | 1.1 µM | –
10 | CCCc1cc2c(N3CCn4c(nnc4C(F)(F)F)C3)nc(-c3nc(CC)no3)nc2s1 [Example 4-27, 7-[2-(3-Ethyl-[1,2,4]oxadiazol-5-yl)-6-propyl-thieno[2,3-d]pyrimidin-4-yl]-3-trifluoromethyl-5,6,7,8-tetrahydro-[1,2,4]triazolo[4,3-a]pyrazine] | 1.5 µM | 0.13 µM | –
11 | CCCc1cc2c(N3CCn4c(nnc4C(F)(F)F)C3)nc(N3CCN(C(=O)OCC)CC3)nc2s1 [Example 1-7, 4-[6-Propyl-4-(3-trifluoromethyl-5,6-dihydro-8H-[1,2,4]triazolo[4,3-a]pyrazin-7-yl)-thieno[2,3-d]pyrimidin-2-yl]-piperazine-1-carboxylic acid ethyl ester] | 0.77 µM | 0.22 µM | –
12 | CCCc1cc2c(N3CCn4c(nnc4C(F)(F)F)C3)nc(CC(=O)O)nc2s1 [Example 4-54, [6-Propyl-4-(3-trifluoromethyl-5,6-dihydro-8H-[1,2,4]triazolo[4,3-a]pyrazin-7-yl)thieno[2,3-d]pyrimidin-2-yl]acetic acid] | 0.47 µM | 0.37 µM | –
13 | CCCc1cc2c(N3CCn4c(nnc4C(F)(F)F)C3)nc(C(=O)NCCC(=O)OCC)nc2s1 [Example 4-6, 3-{[6-Propyl-4-(3-trifluoromethyl-5,6-dihydro-8H-[1,2,4]triazolo[4,3-a]pyrazin-7-yl)thieno[2,3-d]pyrimidine-2-carbonyl]amino}propionic acid ethyl ester] | 1.2 µM | 2.89 µM | –
14 | CCc1cc2c(N3CCn4c(nnc4C(F)(F)F)C3)nc(N3CCN(C)CC3)nc2s1 [Example 2-10, 7-[6-Ethyl-2-(4-methyl-piperazin-1-yl)-thieno[2,3-d]pyrimidin-4-yl]-3-trifluoromethyl-5,6,7,8-tetrahydro-[1,2,4]triazolo[4,3-a]pyrazine] | 0.773 µM | 0.22 µM | –
15 | CCCc1cc2c(N3CCn4c(nnc4C(F)(F)F)C3)nc(N3CC[C@@H](OC(C)=O)C3)nc2s1 [Example 1-23, Acetic Acid (R)-1-[6-propyl-4-(3-trifluoromethyl-5,6-dihydro-8H-[1,2,4]triazolo[4,3-a]pyrazin-7-yl)-thieno[2,3-d]pyrimidin-2-yl]-pyrrolidin-3-yl ester] | 0.094 µM | 0.09 µM | –
16 | CCc1cc2c(N3CCn4c(C)nnc4C3)nc(N3CCNC(=O)C3)nc2s1 [Example 6-12, 4-[6-Ethyl-4-(3-methyl-5,6-dihydro-8H-[1,2,4]triazolo[4,3-a]pyrazin-7-yl)-thieno[2,3-d]pyrimidin-2-yl]-piperazin-2-one] | 0.809 µM | 0.76 µM | –
17 | CCc1cc2c(N3CCn4c(nnc4C(F)(F)F)C3)nc(OCCO)nc2s1 [Example 3-50, 2-[6-Ethyl-4-(3-trifluoromethyl-5,6-dihydro-8H-[1,2,4]triazolo[4,3-a]pyrazin-7-yl)-thieno[2,3-d]pyrimidin-2-yloxy]-ethanol] | 0.141 µM | 0.596 µM | –
18 | CCCc1cc2c(N3CCn4c(nnc4C(F)(F)F)C3)nc(N3CCN(c4cccc(O)c4)CC3)nc2s1 [Example 1-39, 3-{4-[6-Propyl-4-(3-trifluoromethyl-5,6-dihydro-8H-[1,2,4]triazolo[4,3-a]pyrazin-7-yl)-thieno[2,3-d]pyrimidin-2-yl]-piperazin-1-yl}-phenol] | 0.55 µM | 0.14 µM | –
19 | CCCc1cc2c(N3CCn4c(nnc4C(F)(F)F)C3)nc(Oc3cccc(C(=O)OC)c3)nc2s1 [Example 3-30, 3-[6-Propyl-4-(3-trifluoromethyl-5,6-dihydro-8H-[1,2,4]triazolo[4,3-a]pyrazin-7-yl)-thieno[2,3-d]pyrimidin-2-yloxy]-benzoic acid methyl ester] | > 4 µM | 0.28 µM | –
20 | CCCc1cc2c(N3CCn4c(nnc4C(F)(F)F)C3)nc(Oc3ccccc3C(=O)OC)nc2s1 [Example 3-32, 2-[6-Propyl-4-(3-trifluoromethyl-5,6-dihydro-8H-[1,2,4]triazolo[4,3-a]pyrazin-7-yl)-thieno[2,3-d]pyrimidin-2-yloxy]-benzoic acid methyl ester] | > 4 µM | 0.65 µM | –
21 | CCCc1cc2c(N3CCn4c(nnc4C(F)(F)F)C3)nc(-c3nnc(Cc4ccccc4)o3)nc2s1 [Example 4-42, 7-[2-(5-Benzyl-[1,3,4]oxadiazol-2-yl)-6-propyl-thieno[2,3-d]pyrimidin-4-yl]-3-trifluoromethyl-5,6,7,8-tetrahydro-[1,2,4]triazolo[4,3-a]pyrazine] | 0.16 µM | 0.029 µM | –
22 | CCCc1cc2c(N3CCn4c(nnc4C(F)(F)F)C3)nc(N3CCC(OC)C3)nc2s1 (stereo not shown) [Example 1-24, 7-[2-(3-Methoxy-pyrrolidin-1-yl)-6-propyl-thieno[2,3-d]pyrimidin-4-yl]-3-trifluoromethyl-5,6,7,8-tetrahydro-[1,2,4]triazolo[4,3-a]pyrazine] | 0.088 µM | 0.054 µM | –
23 | CCCc1cc2c(N3CCn4c(nnc4C(F)(F)F)C3)nc(C(=O)NCC(=O)OCC)nc2s1 [Example 4-8, {[6-Propyl-4-(3-trifluoromethyl-5,6-dihydro-8H-[1,2,4]triazolo[4,3-a]pyrazin-7-yl)thieno[2,3-d]pyrimidine-2-carbonyl]amino}acetic acid ethyl ester] | 0.55 µM | 0.47 µM | –
24 | CCCc1cc2c(N3CCn4c(nnc4C(F)(F)F)C3)nc(N3CCNc4ncccc43)nc2s1 [Example 1-134, 1-[6-Propyl-4-(3-trifluoromethyl-5,6-dihydro-8H-[1,2,4]triazolo[4,3-a]pyrazin-7-yl)thieno[2,3-d]pyrimidin-2-yl]-1,2,3,4-tetrahydro-pyrido[2,3-b]pyrazine] | 0.869 µM | 1 µM | –
25 | CCCc1nc2c(N3CCn4c(nnc4C(F)(F)F)C3)nc(N3CCC[C@H](C(=O)O)C3)nc2s1 [Example 5-7, (S)-1-[2-Propyl-7-(3-trifluoromethyl-5,6-dihydro-8H-[1,2,4]triazolo[4,3-a]pyrazin-7-yl)-thiazolo[5,4-d]pyrimidin-5-yl]-piperidine-3-carboxylic acid] | 0.038 µM | 0.032 µM | –
26 | CCCc1cc2c(N3CCn4c(nnc4C(F)(F)F)C3)nc(Oc3ccc(C#N)cc3)nc2s1 [Example 3-38, 4-[6-Propyl-4-(3-trifluoromethyl-5,6-dihydro-8H-[1,2,4]triazolo[4,3-a]pyrazin-7-yl)-thieno[2,3-d]pyrimidin-2-yloxy]-benzonitrile] | 2.2 µM | 0.179 µM | –
